CC1(c2ccc(Cl)c(Cl)c2)CN(C(=O)c2ccc(F)c3ccccc23)CCN1C(=O)CNC1CCN(Cc2ccccc2)CC1 (racemic) showed a melting point of 93 to 96 °C.
For CCSC1CC2(C)C(CCC3C4CCC(C(C)=O)C4(C)CC(=O)C32)CC1O (stereo not given), the melting point was 170 to 173 °C.
For Nn1cnc2ccccc2c1=O, the melting point was 209 to 210 °C.
COC1(c2cccc(Sc3ccc4c(ccc(=O)n4CC(F)(F)F)c3)c2)CCOCC1 showed a melting point of 138 to 140 °C.
In the case of OC1CSC(Oc2ccc(-c3ccc(N4CCCCC4)cc3)nc2)C(O)C1O (stereo not given), the melting point is reported as 221 °C.
CCCCOCCOc1ccc(-c2ccc(N3CCC(C)CC3)c(C=CC(=O)O)c2)cc1 gave a melting point of 159 to 160 °C.
Work on O=Cc1ccc2ccnc(NC(=O)c3ccccc3)c2c1 yielded a melting point of 138 to 139 °C.
O=c1ccn(CCO)c(C(O)c2cccs2)c1OCc1ccccc1 (stereo not given) gave a melting point of 194 to 196 °C.
CC(=O)C1=C(C)CC2C3CCC4CC(O)CCC4(C)C3C(=O)CC12C (stereo not given) showed a melting point of 230 to 231 °C.
For COc1ccc(NC(=O)c2ccc([N+](=O)[O-])c(C)c2)cc1, the melting point was 168 to 169 °C.
With CN(C)CC(O)c1cc(C(F)(F)F)nc2c(C(F)(F)F)cccc12 (stereo not given) the melting point was 80 to 80.7 °C.
For O=C(O)CCCc1ccc(NS(=O)(=O)c2ccc(Br)cc2)cn1, the melting point was 188 to 190 °C.
For COc1cccc(C2=C(c3cn4c5c(cccc35)CCC4)C(=O)NC2=O)c1, the melting point was 99 to 101 °C.
CS(=O)(=O)Nc1cc2occ(N3CCCC3=O)c(=O)c2cc1Oc1ccccc1 showed a melting point of 192 to 193 °C.
Work on CC(=O)CCC(=O)N1CCN(c2c(F)cc(N3CC(CNC(C)=O)OC3=O)cc2F)CC1 (stereo not given) yielded a melting point of 52 to 56 °C.
Compound Nc1ncc(C#Cc2ccc(Cl)cc2)c(NCCO)n1 has a melting point of 197 to 200 °C.
In the case of O=C(CNC(=O)c1ccc(Cl)c(Cl)c1)c1ccoc1, the melting point is reported as 133 to 134 °C.
For CC(C)(C)OC(=O)Oc1ccc([N+](=O)[O-])cc1, the melting point was 73 to 74.5 °C.
Work on COC(=O)c1cc(Cl)cnc1N yielded a melting point of 139 to 140 °C.
In the case of Cc1cccc([N+](=O)[O-])c1CC(CC(=O)O)C(=O)O (stereo not given), the melting point is reported as 172 to 176 °C.
COc1cccc(OC2COc3ccc(OCc4cc(OC)ccn4)cc3C2O)c1 (stereo not given) showed a melting point of 165 to 166 °C.
CC(C)Nc1nc(Br)cnc1OCC(O)CBr (stereo not given) gave a melting point of 108 to 109 °C.
CCOc1cccc2c1Sc1ccccc1C2 gave a melting point of 95 to 98 °C.
Work on O=c1ccn(-c2ccccc2F)nc1-c1ccnn1-c1ccccc1 yielded a melting point of 124 to 125 °C.
Work on CN(C)C=Nc1c(-c2c(F)cc(F)cc2F)c(Cl)nc2ncnn12 yielded a melting point of 188 to 190 °C.
O=c1cc(Sc2ccc(O)cc2)oc2cc(O)cc(O)c12 showed a melting point of 249 to 251 °C.
Compound Cc1nc(N)c2ncn(CCCCNC(=O)N3CCOCC3)c2c1C has a melting point of 164 to 167 °C.
With CC(C)(C)c1cc(CCc2ccccc2NC(=O)NCC2(c3ccc4c(c3)OCO4)CCCC2)cc(C(C)(C)C)c1O the melting point was 188 to 189 °C.
For CN(C)CCCc1ccc2c(c1)CCCN2C(=O)c1ccc(-c2ccccc2)cc1, the melting point was 100 to 101 °C.
With CN(C)C1CC2=CN(S(=O)(=O)c3ccccc3)C=C3C=CC(=O)CC1=C32 (stereo not given) the melting point was 114 to 116 °C.
Cc1cccc(-c2nc3cccnn3c2-c2ccnc(NC(=O)c3ccccc3)c2)c1 showed a melting point of 178 to 180 °C.
In the case of CCOC(=O)C1(n2cc(Cl)cc2C(=O)C(Cl)(Cl)Cl)CC(=O)NC1=O (stereo not given), the melting point is reported as 182 to 185 °C.
With COc1ccc(C2=NOC(C)(/C(N)=C/OC(C)=O)C2)cc1OC1CCCC1 (stereo not given) the melting point was 131 °C.
For CC(=O)N(C)c1cccc(-c2ccc(Cl)nn2)c1, the melting point was 118 to 120 °C.
For O=C(CCCc1ccc(Cl)cc1)c1ccc(OCc2ccc3ccccc3n2)cc1, the melting point was 140 to 142 °C.
Cc1nc(-c2ccccc2)nc(-c2ccccn2)n1 gave a melting point of 97 °C.
With NC(=S)c1cnn(-c2c(Cl)cc(C(F)(F)F)cc2Cl)n1 the melting point was 214 to 218 °C.
Work on COC(=O)c1ccnc(N2CCN(CC3CC3)C2=O)c1 yielded a melting point of 75 to 77 °C.
Work on Cc1c(C)c2c(c(C)c1NC(=O)CC(C)(C)C)C(c1cccc(C=O)c1)CO2 (stereo not given) yielded a melting point of 178 to 179 °C.
COC(=O)CCC(C#N)(CCC(=O)OC)c1ccc(OC)c(OC)c1 showed a melting point of 72 to 73 °C.
CC(=O)N(C)c1ccc(-c2ccnc3c(C(=O)c4ccco4)cnn23)cc1 gave a melting point of 202 to 204 °C.
COc1cc2ncnc(N3CCC(CI)CC3)c2cc1OC gave a melting point of 180 to 182 °C.
For CN(Cc1ccc(S(C)(=O)=O)cc1)S(=O)(=O)c1cn(S(=O)(=O)N(C)C)c(C#N)n1, the melting point was 169 to 172 °C.
O=c1[nH]c2cccc(OCCNCc3ccccc3)c2[nH]1 showed a melting point of 132 to 135 °C.
CCOC(=O)c1nc(-c2cc(Cl)c(OC)c(OC)c2)cs1 gave a melting point of 92 to 94 °C.
For Cc1cc2ccc(/C=C/C(=O)OCc3ccccc3)cc2[nH]1, the melting point was 164 to 165 °C.
CN1C(=O)C2(COc3cc4c(cc32)OCCO4)c2c(C#N)cccc21 (stereo not given) gave a melting point of 196 to 197 °C.
CCC(=O)C1=C(O)CC(c2ccc3ccccc3c2)CC1=O (stereo not given) gave a melting point of 125 °C.
For CN1CCC(c2c[nH]c3ccc(NC(=O)c4cccnc4)nc23)CC1, the melting point was 136 to 137 °C.
With NC(=O)[C@@H]1C[C@H](C(=O)O)Nc2cc(Cl)cc(Cl)c21 (relative stereo) the melting point was 220 to 222 °C.
Work on Cc1oc(-c2ccccc2)nc1COc1ccc(CN(O)C(N)=O)cc1F yielded a melting point of 143 to 144 °C.
COc1ccc(S(=O)(=O)N2C(=O)C(c3ccccc3OC)(N3Cc4ccccc4C3C(=O)N(C)C)c3cc(Cl)ccc32)c(OC)c1 (stereo not given) gave a melting point of 168 °C.
O=c1c2c(n(-c3ccccc3)c3ncccc13)OC(CBr)C2 (stereo not given) gave a melting point of 187 to 188 °C.
CC(C)Cn1cnc2c(N)nc3ccc(OCc4ccccc4)cc3c21 gave a melting point of 214 to 216 °C.
Work on Cc1ccc(S(=O)(=O)NCC(Cc2ccccc2)NS(=O)(=O)c2ccc(C)cc2)cc1 (stereo not given) yielded a melting point of 128 to 131 °C.
In the case of COc1cc(Oc2cccc(C(F)(F)F)c2)nc(C(=O)NN=C(C)c2ccccc2)c1, the melting point is reported as 181 to 182 °C.
CC(=O)c1ccc(-c2ccc(C#N)cc2)o1 gave a melting point of 115 to 116 °C.
Compound O=S(=O)(c1ccc(O)cc1)c1c(-c2ccccc2)cn2ccccc12 has a melting point of 234 °C.
CC1(C)OC(=O)Nc2c(F)cc(-c3cc(F)cc(C#N)c3)cc21 showed a melting point of 256 to 257 °C.
c1cc(-c2cc(C3CC3)on2)ccn1 gave a melting point of 76 to 80 °C.
For CCOCc1nc2c(c(C)c(C)n3nnnc23)n1CCNS(C)(=O)=O, the melting point was 218 to 222 °C.
In the case of Cc1ccnc(C=Cc2ccccc2)n1, the melting point is reported as 65 to 67 °C.
Compound Cc1cc2c(cc1-c1ccc(C=O)s1)C(C)(C)CCC2(C)C has a melting point of 130 to 135 °C.
Work on Clc1cccc(Nc2ncnc3[nH]nc(NCc4ccc5c(c4)OCO5)c23)c1 yielded a melting point of 220 to 222 °C.
COc1cc(C)c2c(c1OCC(=O)O)CC(C)(c1ccccc1)C2 (stereo not given) showed a melting point of 151 to 152 °C.
CCOC(=O)C1=C[C@H](c2ccc(C)cc2)[C@H](CO[Si](C)(C)C(C)(C)C)C(=O)O1 showed a melting point of 60 to 61 °C.
Cc1nc2c(Br)cc(Br)cn2c1C showed a melting point of over 90 °C.
C=CCc1c(Cl)cc2c(c1O)CCC2 gave a melting point of 37 to 39 °C.
Fc1ccc2[nH]c3c4ccccc4nc-3cc2c1 showed a melting point of over 246 °C.
With OC1CCCc2nc3cc(F)ccc3c(NCc3ccccc3C(F)(F)F)c21 (stereo not given) the melting point was 149 to 153 °C.
In the case of N#CCNCCc1c[nH]c2ccc(Cl)cc12, the melting point is reported as 80 °C.
Compound O=c1[nH]c2cnccc2c2nc(-c3ccccc3F)nn12 has a melting point of 285 to 287 °C.
Work on CCOC(=O)C1=C(CO)NC(C)=C(C(=O)OCc2ccccc2)C1c1ccccc1[N+](=O)[O-] (stereo not given) yielded a melting point of 51 to 57 °C.
COc1ccc(-c2ccnnc2)cc1OC1CCCC1 showed a melting point of 100 to 102 °C.
CC1(C)Cc2cccc(Oc3c(Cl)cc(N)cc3Cl)c2O1 showed a melting point of 140 to 145 °C.
Compound CC(C)=CC(=S)Nc1ccccc1 has a melting point of 175 °C.
Work on COc1ccccc1N1CCN(CC(=O)Nc2ccc3c(c2NC(=O)c2ccc(C)cc2)C(=O)c2ccccc2C3=O)CC1 yielded a melting point of 215 to 216 °C.
For O=C(O)c1ccc(NCCCCCCOc2ccccc2)cc1, the melting point was 168 to 170 °C.
O=c1c2ccc3[nH]cc(CCNS(=O)(=O)c4ccccc4)c3c2ccn1Cc1ccccc1 showed a melting point of 205 to 206 °C.
Work on COc1ccc(F)c2c1OC(CN1CC(C)(C)Cn3c1nc(-c1ccncn1)cc3=O)CC2 (racemic) yielded a melting point of 136 to 138 °C.
N#CCC(=O)c1cccc(Oc2ccccc2)c1 gave a melting point of 95 to 96 °C.
Work on CCOC(=O)c1csc(-c2ccc3cc(O)c(C45CC6CC(CC(C6)C4)C5)cc3c2)c1 yielded a melting point of 199 to 200 °C.
Compound CC1(C)NC(=O)c2ccccc21 has a melting point of 159 to 160 °C.
Work on CCOC(=O)[C@H](CSCc1ccccc1)NC(=O)C(C)(C)NC(=O)[C@@H](SC(C)=O)C(C)C yielded a melting point of 69 to 71 °C.
CCCCCCCOc1ccc(-c2ccc(N=Nc3ccc(N=Nc4ccc(N(C)C)cc4)cc3)cc2)cc1 showed a melting point of 201 to 203 °C.
For COc1ccc(Cl)c(S(=O)(=O)NC(=O)c2cn3cc(C(F)(F)F)cc(Cl)c3n2)c1, the melting point was 211 to 212 °C.
Work on CCc1cc2c(=O)n3cc(C#N)ccc3nc2s1 yielded a melting point of 223 to 224 °C.
With CN1C(=O)N2C(=NC1(C)C)N(C(=O)Nc1ccc(Cl)c(Cl)c1)c1ccccc12 the melting point was 198 to 200 °C.
With COc1c(S(N)(=O)=O)cc(C(=O)O)c2c1OCCO2 the melting point was 247 to 248 °C.
With COc1cc2c3c(cccc3c1OC)C(=O)N(O)C2=O the melting point was 226 to 228 °C.
In the case of O=[N+]([O-])c1ccc(-c2ccc(Cl)cc2)cc1, the melting point is reported as 142 to 145 °C.
CC(=O)CC(=O)NCC#N showed a melting point of 63 to 65 °C.
O=C(O)c1cc(NC(=O)C(CS)Cc2ccccc2)ccc1N1CCCC1 (stereo not given) gave a melting point of 196 to 198 °C.
With Cc1ccc(-c2nc(-c3ccc(C)cc3C)nc(-c3ccc(O)cc3O)n2)c(C)c1 the melting point was 199 to 201 °C.
COc1cccc(C(C)CC(=O)Nc2sc3c(c2C#N)CCNC3)c1 (racemic) showed a melting point of 197 to 200 °C.
Work on O=C1NC(c2ccccc2)(c2ccccc2)C(=O)N1COP(=O)(OCc1ccccc1)OCc1ccccc1 yielded a melting point of 119 to 120 °C.
With CC(C)(C)OC(=O)c1cc2ccccc2[nH]1 the melting point was 104 to 105 °C.
For Cc1oc(-c2ccccc2)nc1COc1cccc(COc2cncc(CO)c2)c1, the melting point was 145 to 146 °C.
CCCNc1nc(=O)n(C2CC(N=[N+]=[N-])C(COC(C)=O)O2)cc1C (stereo not given) showed a melting point of 138 to 140 °C.
With CC/C(=C(\c1ccc(/C=C/C(=O)O)cc1)c1ccc(OC(=O)c2ccno2)cc1)c1ccccc1 the melting point was 141 to 142 °C.
